Read-outs that look alike come from different tables or passages of the source.
How the values were obtained:
[1] = tested on: J774 macrophages; test: Nitrite production by immunostimulated J774 macrophages (endotoxin 24 h, Griess); format: cell-based, mouse; settings: Mus musculus, read-out: EC50 for the inhibition of nitrite production by stimulated J774 macrophages
Experimental: This example illustrates the effect of selected mercapto derivatives on endotoxin-induced nitrite formation in J774.2 macrophages and on IL-1 gamma-interferon induced nitrite formation in cultured rat arctic smooth muscle cells. J774 macrophage cell lines were obtained from the American Type Culture Collection (ATCC) and were grown using standard methods in Dulbecco's Modified Eagle Medium (DMEM) supplemented with 10% fetal bovine serum, glutamine, penicillin (10,000 U/l) and streptomycin (10,000 U/l). Rat aortic smooth muscle cells (RASM) from Wistar rats were isolated by enzymatic dissociation using standard methods. The cells were positively identified as smooth muscle by indirect immunofluorescent staining for a-actin, using mouse anti-α-actin antibody and anti-mouse IgG fluorescein isothiocyanate (FITC) conjugate. RASM cells were grown in T-75 tissue culture flasks in 50% F12 nutrient medium and 50% Dulbecco's Modified Eagle Medium supplemented with 10% fetal bovine serum, glutamine, penicillin (10,000 U/l) and streptomycin (10,000 U/l). Cells were grown in 96-well plates for measure of nitrite production and cell viability. J774 macrophages were treated with endotoxin (10 μg/ml) for 24 hours; smooth muscle cells were treated with IL-1 (100 U/ml) and gamma-interferon (50 U/ml) for 48 hours.
Concentration of nitrite, the degradation product of NO in the culture medium, was determined by mixing equal volumes of medium with the Griess reagent (1% sulfanilamide/0.1% naphthylethylenediamine dihydrochloride/2.5% H3 PO4). The mixture was incubated for 10 minutes at room temperature to form the chromophore, then optical densities (OD) were determined at 550 nm (OD550). NaNO2 was used as the standard. Spectrophotometric measurements were performed in a dual-wavelength spectrophotometer.

[2] = target: T1, ecNOS (Bos taurus, UniProt P29473); test: ecNOS activity from intimal scrapings of fresh bovine aortae (conversion of [3H]-L-arginine to [3H]-L-citrulline); format: biochemical
T1 construct: the intimal surface of fresh bovine aortae was scraped and homogenized; from tissue; host or cells: homogenate of intimal scrapings of fresh bovine aortae
Experimental: The intimal surface of fresh bovine aortae was scraped in the presence of homogenation buffer composed of 50 mM Tris-HCl, 0.1 mM ethylenediamine tetraacetic acid (EDTA) and 0.1 mM ethyleneglycol bis (beta-aminoethyl ether) (EGTA). Conversion of [^3 H]-L-arginine to [^3 H]-L-citrulline was measured in the homogenates as follows: cell homogenate (50 μl) was incubated in the presence of [^3 H]-L-arginine (10 μM, 5 kBq/tube), NADPH (2 mM), calmodulin (30 nM), tetrahydrobiopterin (5 μM) and calcium (2 mM) for 20 minutes at 37° C. in N-2-hydroxethyl piperazine-N-2-ethane sulfonic acid (HEPES) buffer (pH 7.5). Reactions were stopped by dilution with 1 ml of ice cold HEPES buffer (pH 5.5) containing EGTA (2 mM) and EDTA (2 mM). Reaction mixtures were applied to Dowex 50W (Na^+ form) columns and the eluted [^3 H]-L-citrulline activity was measured by scintillation counting. bNOS activity was measured using similar methods in homogenates of whole rat brains.
For a preparation rich in ecNOS, the intimal surface of fresh bovine aortae was scraped and homogenized. The homogenization buffer was composed of 50 mM tris-HCL, 0.1 mM EDTA, 0.1 mM EGTA and 1 mM phenylmethylsulfonyl chloride (pH 7.4). Cell suspensions were homogenized in the homogenization buffer on ice using a Tissue Tearor 985-370 homogenizer (BioSpec Products, Racine, Wis.). Conversion of [^3 H]-L-arginine to [^3 H]-L-citrulline was measured in the homogenates as described in Example 3 above.

[3] = target: T2, bNOS (Rattus norvegicus, UniProt P29476); test: bNOS activity in homogenates of whole rat brains; format: biochemical; settings: bNOS (Table 2); read-out: EC50 for inhibition of bNOS activity in tissue homogenates
T2 construct: bNOS activity was measured using similar methods in homogenates of whole rat brains; from tissue; host or cells: homogenate of whole rat brains
T2 sequence (P29476 whole entry): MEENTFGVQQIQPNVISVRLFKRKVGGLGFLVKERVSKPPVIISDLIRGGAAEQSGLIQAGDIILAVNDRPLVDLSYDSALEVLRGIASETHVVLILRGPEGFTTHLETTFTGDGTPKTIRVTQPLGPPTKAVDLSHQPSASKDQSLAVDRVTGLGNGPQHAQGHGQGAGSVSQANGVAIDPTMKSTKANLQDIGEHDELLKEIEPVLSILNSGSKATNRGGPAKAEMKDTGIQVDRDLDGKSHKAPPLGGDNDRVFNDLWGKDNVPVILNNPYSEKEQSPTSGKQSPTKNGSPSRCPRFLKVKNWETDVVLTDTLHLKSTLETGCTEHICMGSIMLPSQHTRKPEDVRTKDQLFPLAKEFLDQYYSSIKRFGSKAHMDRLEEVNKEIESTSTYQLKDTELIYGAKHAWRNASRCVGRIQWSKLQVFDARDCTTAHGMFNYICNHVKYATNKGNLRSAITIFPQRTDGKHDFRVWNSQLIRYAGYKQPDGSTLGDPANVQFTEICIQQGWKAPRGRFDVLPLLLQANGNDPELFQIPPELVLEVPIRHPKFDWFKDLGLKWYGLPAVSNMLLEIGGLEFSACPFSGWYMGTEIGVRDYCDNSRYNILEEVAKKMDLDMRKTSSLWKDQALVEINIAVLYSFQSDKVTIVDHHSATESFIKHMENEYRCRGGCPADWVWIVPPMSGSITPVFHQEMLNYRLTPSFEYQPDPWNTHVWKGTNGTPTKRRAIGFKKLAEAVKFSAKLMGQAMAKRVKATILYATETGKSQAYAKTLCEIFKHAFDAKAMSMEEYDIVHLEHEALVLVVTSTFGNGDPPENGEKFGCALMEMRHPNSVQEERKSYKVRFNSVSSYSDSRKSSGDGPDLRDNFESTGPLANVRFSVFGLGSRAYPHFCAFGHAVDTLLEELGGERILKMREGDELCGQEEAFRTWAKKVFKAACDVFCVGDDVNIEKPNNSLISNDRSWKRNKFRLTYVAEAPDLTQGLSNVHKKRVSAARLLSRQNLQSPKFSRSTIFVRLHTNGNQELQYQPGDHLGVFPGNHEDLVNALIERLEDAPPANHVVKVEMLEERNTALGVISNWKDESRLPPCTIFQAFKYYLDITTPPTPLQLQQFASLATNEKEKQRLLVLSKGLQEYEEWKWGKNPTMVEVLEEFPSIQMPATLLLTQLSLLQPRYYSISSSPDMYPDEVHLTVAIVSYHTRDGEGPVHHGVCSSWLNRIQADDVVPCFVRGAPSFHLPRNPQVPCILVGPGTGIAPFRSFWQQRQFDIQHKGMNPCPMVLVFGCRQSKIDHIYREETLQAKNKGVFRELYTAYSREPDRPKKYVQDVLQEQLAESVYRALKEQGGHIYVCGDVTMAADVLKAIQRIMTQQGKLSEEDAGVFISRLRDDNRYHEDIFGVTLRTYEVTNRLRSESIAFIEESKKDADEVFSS

[4] = tested on: constitutive and inducible NOS isoforms; settings: background literature; cited from earlier work
[5] = target: T3, iNOS (Rattus norvegicus, UniProt Q06518); test: Inhibition of iNOS activity in tissue homogenates (Table 2); format: biochemical; parameters: bNOS in tissue homogenates; from tissue; host or cells: tissue homogenate; settings: iNOS (Table 2)
[6] = Mean arterial blood pressure in normal anesthetized rats; format: in vivo, Male Wistar rats; settings: i.v. or i.p.
[7] = tested on: J774.2 macrophages; test: Nitrite production in immunostimulated J774.2 macrophages (E.coli LPS + murine gamma-interferon, 24 h); format: cell-based, mouse; settings: Mus musculus
Experimental: This example illustrates the effect of selected mercapto and seleno derivatives on nitrite production in J774.2 immunostimulated macrophages. The J774.2 mouse macrophage cell line was obtained from the ATCC and was cultured in DMEM with 4×10^-3 M L-glutamine and 10% fetal calf serum. Cells were cultured in 96-well plates with 200 μl culture medium until they reached 60-80% confluence. To induce INOS, fresh culture medium containing E.coli LPS (10 μg/ml) and murine gamma-interferon (IFN)(50 U/ml) was added. Nitrite accumulation in the cell culture medium in the absence or presence of various inhibitors was measured after 24 hours. Nitrite production, an indicator of NO synthesis, was measured in the supernatant of J774.2 macrophages by the Greiss reaction as described in Example 1 above.
This Example illustrates the effect of selected seleno derivatives on endotoxin-induced nitrite formation in J774.2 macrophages. The mouse macrophage cell line J774.2 obtained from the ATCC was cultured in DMEM with 4×10^-3 M L-glutamine and 10% fetal calf serum. Cells were cultured in 96-well plates with 200 μl culture medium until they reached 60-80% confluence. To induce iNOS, fresh culture medium containing E.coli LPS (10 μg/ml) and murine gamma-interferon (IFN)(50 U/ml) were added. Nitrite accumulation in the cell culture medium in the absence or presence of various inhibitors was measured after 24 hours. There was no detectable nitrite production by the J774.2 macrophages in the absence of immunostimulation. However, in the presence of IFN and LPS, nitrite concentration of the medium increased to 17±2 μM in the absence of inhibitor.

[8] = target: T3, iNOS; test: iNOS activity in lung homogenates from rats treated with bacterial endotoxin; format: biochemical; parameters: Lungs were obtained from rats which had been treated with bacterial endotoxin; from tissue; host or cells: lung homogenate from endotoxin-treated rats
Experimental: This Example illustrates the effect of selected mercapto and seleno derivatives on iNOS activity in lung homogenates prepared from rats treated with endotoxin. […] The homogenization buffer was composed of 50 mM tris-HCL, 0.1 mM EDTA, 0.1 mM EGTA and 1 mM phenylmethylsulfonyl chloride (pH 7.4). Cell suspensions were homogenized in the homogenization buffer on ice using a Tissue Tearor 985-370 homogenizer (BioSpec Products, Racine, Wis.).

Row | EC50 ([7]; J774.2, IFN and LPS, Example 9, read-out: EC50, inhibition of nitrite production) | Compound | EC50 ([1]; J774, 24 h) | EC50 ([2]; ecNOS (Table 2), read-out: EC50 for inhibition of ecNOS activity in tissue homogenates) | EC50 [3] | NOS inhibition / isoform selectivity, in words [4] | EC50 [5] | EC50 ([2]; n=6, bovine aorta, read-out: EC50, dose dependent inhibition of ecNOS activity) | EC50 ([1]; J774, endotoxin 10 μg/ml, 24 h (Table 1)) | mean arterial blood pressure (MAP) response [6] | activity at 1000 µM ([7]; J774.2, 24 h, inhibitor concentration -3.000 log M (Table 3), read-out: NITRITE (% OF CONTROL)) | activity at 100 µM ([7]; J774.2, 24 h, inhibitor concentration -4.000 log M (Table 3), read-out: NITRITE (% OF CONTROL)) | activity at 10 µM ([7]; J774.2, 24 h, inhibitor concentration -5.000 log M (Table 3), read-out: NITRITE (% OF CONTROL)) | activity at 1 µM ([7]; J774.2, 24 h, inhibitor concentration -6.000 log M (Table 3), read-out: NITRITE (% OF CONTROL)) | iNOS ACTIVITY (%) ([8]; inhibitor concentration -3.000 log M) | iNOS ACTIVITY (%) ([8]; inhibitor concentration -4.000 log M) | iNOS ACTIVITY (%) ([8]; inhibitor concentration -5.000 log M) | iNOS ACTIVITY (%) ([8]; inhibitor concentration -6.000 log M) | iNOS ACTIVITY (%) ([8]; inhibitor concentration -7.000 log M) | inhibition of iNOS activity, in words ([8]; lung homogenates, rats treated with endotoxin)
1 | – | N=C(N)NN [Aminoguanidine, reference compound] | 120 µM | 2600 µM | 220 µM | selectively inhibit the inducible isoform of nitric oxide synthase | 80 µM | – | – | – | – | – | – | – | – | – | – | – | – | –
2 | – | COC(=O)[C@@H](N)CCCNC(=N)N[N+](=O)[O-] [L-NAME, NG-nitro-L-arginine methyl ester, reference compound] | – | – | – | inhibit both the constitutive and the inducible NOS isoforms to a similar extent | – | 2 µM | – | – | – | – | – | – | – | – | – | – | – | –
3 | 90 µM | CNC(=N)NCCC[C@H](N)C(=O)O [L-NMA, N^G -Methyl-L-arginine, reference compound] | – | – | – | – | 17 µM | – | 159 µM | pronounced and dose-dependent pressor response | 12.6% | 45% | 73.5% | 95% | 18.000% | 40.00% | 100.000% | 100.000% | 100.000% | somewhat similar in their inhibitory effect on INOS activity

From patent US5929063A, “Mercapto and seleno derivatives as inhibitors of nitric oxide synthase” (priority 1995, dated 1999)
